Calls of active or inactive are those of the source. No cut-off for these calls is given here.
Legend:
Cell membrane [1] = assay: Induction of cell membrane integrity in methicillin-resistant Staphylococcus aureus assessed as appearance of blue and red fluorescence at 0.25 ug/ml incubated for 8 hrs by DAPI/PI staining based fluorescence microscopic analysis; format: subcellular; conditions: dose 0.25 µg/ml
Staphylococcus aureus [2] = assay: Antibacterial activity against methicillin-resistant Staphylococcus aureus clinical isolate M-18 incubated for 14 hrs by two-fold serial dilution method; format: functional
[3] = Toxicity in female Kunming mouse assessed as pathological changes in liver at 500 to 2000 mg/kg, sc measured after 7 days by H and E staining based analysis; format: organism-based; conditions: in vivo, 168 h, dose 500-2000 mg/kg, time 7 day
Staphylococcus aureus [4] = assay: In vivo antibacterial activity against methicillin-resistant Staphylococcus aureus infected in female Kunming mouse skin infection model assessed as log reduction in bacterial load at 5 mg/kg measured after 48 hrs (reference value: 14.34 log10CFU/g); format: functional
Staphylococcus aureus [5] = assay: Antibacterial activity against methicillin-resistant Staphylococcus aureus clinical isolate M-19 incubated for 14 hrs by two-fold serial dilution method; format: functional
Staphylococcus aureus [6] = assay: Antibacterial activity against methicillin-resistant Staphylococcus aureus incubated for 6 hrs in presence of 10 to 60% sheep plasma; format: functional, organism-based
L02 = assay: Cytotoxicity against human L02 cells assessed as reduction in cell viability at 4 ug/ml incubated for 24 hrs by CCK-8 assay relative to control; format: toxicity, cell-based; conditions: l02, 24 h, at 4 µg/mL
Staphylococcus aureus [7] = assay: Induction of oxidative damage in methicillin-resistant Staphylococcus aureus assessed as reduction in SOD activity incubated for 8 hrs; format: functional, organism-based; conditions: dose 0.25-2 µg/ml
Staphylococcus aureus [8] = assay: Antibacterial activity against Staphylococcus aureus ATCC 33591 assessed as log reduction in bacterial growth at 2 times MIC measured at 6 hrs by time-kill kinetic assay; format: functional
Staphylococcus aureus [9] = assay: Induction of ROS generation in methicillin-resistant Staphylococcus aureus assessed as fold increase in fluorescence intensity at 2 ug/ml incubated for 8 hrs by DCFH-DA dye analysis; format: functional; conditions: dose 2 µg/ml
Staphylococcus aureus [10] = assay: Antibiofilm activity against methicillin-resistant Staphylococcus aureus assessed as inhibition of biofilm formation at 2 ug/ml incubated for 24 hrs by crystal violet staining based analysis relative to control; format: functional; set-up: scale not given: the % may be the effect or the level left; conditions: dose 2 µg/ml
Staphylococcus aureus [11] = assay: Antibacterial activity against methicillin-resistant Staphylococcus aureus assessed as reduction in metabolic activity at 2 ug/ml incubated for 8 hrs by alamar blue staining based analysis relative to control; format: functional; set-up: scale not given: the % may be the effect or the level left; conditions: dose 2 µg/ml
Staphylococcus aureus [12] = assay: Antibacterial activity against methicillin-resistant Staphylococcus aureus clinical isolate M-16 incubated for 14 hrs by two-fold serial dilution method; format: functional
Cell membrane [13] = assay: Induction of cell membrane permeability in methicillin-resistant Staphylococcus aureus assessed as increase in nucleic acid leakage at 2 ug/ml incubated for 8 hrs; format: subcellular; conditions: dose 2.0 µg/ml
Staphylococcus aureus [14] = assay: Antibacterial activity against Staphylococcus aureus ATCC 33591 assessed as log reduction in bacterial growth at 4 times MIC measured at 6 hrs by time-kill kinetic assay; format: functional
[15] = Toxicity in female Kunming mouse assessed as pathological changes in kidney at 500 to 2000 mg/kg, sc measured after 7 days by H and E staining based analysis; format: organism-based; conditions: in vivo, 168 h, dose 500-2000 mg/kg, time 7 day
Staphylococcus aureus [16] = assay: Antibacterial activity against Staphylococcus aureus ATCC 33591 assessed as resistance development by measuring fold increase in MIC at 0.5 times MIC incubated for 8 hrs and measured after 15 passages; format: functional
Staphylococcus aureus [17] = assay: Antibacterial activity against methicillin-resistant Staphylococcus aureus ATCC 33591 assessed as inhibition of bacterial growth incubated for 14 hrs by two-fold serial dilution method; format: functional
Staphylococcus aureus [18] = assay: In vivo antibacterial activity against methicillin-resistant Staphylococcus aureus infected in female Kunming mouse skin infection model assessed as reduction in bacterial load measured after 48 hrs; format: functional, organism-based; conditions: dose 5-20 mg/kg
[19] = Hemolytic activity in sheep RBC assessed as hemolysis at 256 times MIC incubated for 1 hrs relative to control; format: toxicity, cell-based, Ovis aries, Erythrocyte; conditions: sheep red blood cells, read-out: Activity
Staphylococcus aureus [20] = assay: Antibacterial activity against Staphylococcus aureus ATCC 25923 assessed as inhibition of bacterial growth incubated for 14 hrs by two-fold serial dilution method; format: functional
[21] = Hemolytic activity in sheep RBC assessed as hemolysis at 1024 ug/ml incubated for 1 hrs relative to control; format: toxicity, cell-based, Ovis aries, Erythrocyte; conditions: sheep red blood cells, at 1024 µg/mL, read-out: Activity
Staphylococcus aureus [22] = assay: Induction of morphological changes in methicillin-resistant Staphylococcus aureus assessed as appearance of broken cells at 0.5 ug/ml incubated for 6 hrs by SEM analysis; format: functional, organism-based; conditions: dose 0.5 µg/ml
[23] = Toxicity in female Kunming mouse assessed as pathological changes in skin tissue at 5 to 20 mg/kg, sc measured after 48 hrs by H and E staining based analysis; format: organism-based; conditions: in vivo, dose 5-20 mg/kg
Staphylococcus aureus [24] = assay: Antibacterial activity against Staphylococcus aureus ATCC 33591 assessed as log reduction in bacterial growth at 1 times MIC measured at 6 hrs by time-kill kinetic assay; format: functional
Calf thymus DNA = assay: Binding affinity to calf thymus DNA assessed as change in enthalpy at 3 uM by ITC assay; format: nucleic-acid assay; conditions: Bos taurus
[25] = Acute toxicity in female Kunming mouse assessed as aberrant behavior at 500 to 2000 mg/kg, sc measured after 7 days; format: organism-based; conditions: in vivo, 168 h, dose 500-2000 mg/kg, time 7 day
Staphylococcus aureus [26] = assay: In vivo antibacterial activity against methicillin-resistant Staphylococcus aureus infected in female Kunming mouse skin infection model assessed as appearance of smooth inside skin at 20 mg/kg measured after 48 hrs; format: functional, organism-based
Staphylococcus aureus [27] = assay: In vivo antibacterial activity against methicillin-resistant Staphylococcus aureus infected in female Kunming mouse skin infection model assessed as log reduction in bacterial load at 20 mg/kg measured after 48 hrs (reference value: 14.34 log10CFU/g); format: functional

**Q.** With C[n+]1ccc2c3ccccc3n(CCCCCCCCCCCn3c4ccccc4c4cc[n+](C)cc43)c2c1.[I-].[I-] as the compound, how does the Activity (Cell membrane [1]) read?
**A.** Active

**Q.** What about the MIC (Staphylococcus aureus [2]) of the same compound?
**A.** 0.5 µg/mL

**Q.** What about the Activity [3] of the same compound?
**A.** Non-toxic

**Q.** What about the Activity (Staphylococcus aureus [4]) of the same compound?
**A.** 4.85 log10CFU/g

**Q.** And the MIC (Staphylococcus aureus [5])?
**A.** 0.5 µg/mL

**Q.** What about the Activity (Staphylococcus aureus [6]) of the same compound?
**A.** Active

**Q.** What about the Activity (L02) of the same compound?
**A.** 71.86%

**Q.** And the Activity (Staphylococcus aureus [7])?
**A.** Dose-dependent-effect

**Q.** What about the Activity (Staphylococcus aureus [8]) of the same compound?
**A.** 4.26 log10CFU/ml

**Q.** And the “fold change (FC)” value (Staphylococcus aureus [9])?
**A.** 4.34

**Q.** And the Activity (Staphylococcus aureus [10])?
**A.** 79%

**Q.** And the Activity (Staphylococcus aureus [11])?
**A.** 64.56%

**Q.** And the MIC (Staphylococcus aureus [12])?
**A.** 0.5 µg/mL

**Q.** What about the Activity (Cell membrane [13]) of the same compound?
**A.** Active

**Q.** And the Activity (Staphylococcus aureus [14])?
**A.** 5.31 log10CFU/ml

**Q.** And the Activity [15]?
**A.** Non-toxic

**Q.** What about the “fold change (FC)” value (Staphylococcus aureus [16]) of the same compound?
**A.** 2

**Q.** And the MIC (Staphylococcus aureus [17])?
**A.** 0.25 µg/mL

**Q.** And the Activity (Staphylococcus aureus [18])?
**A.** Dose-dependent-effect

**Q.** What about the hemolysis at 1 h, 256 times MIC [19] of the same compound?
**A.** < 10%

**Q.** And the MIC (Staphylococcus aureus [20])?
**A.** 1 µg/mL

**Q.** And the hemolysis at 1 h, 1024 ug/ml [21]?
**A.** 26.4%

**Q.** What about the Activity (Staphylococcus aureus [22]) of the same compound?
**A.** Active

**Q.** And the Activity [23]?
**A.** Non-toxic

**Q.** And the Activity (Staphylococcus aureus [24])?
**A.** 3.95 log10CFU/ml

**Q.** And the deltaH (Calf thymus DNA)?
**A.** -0.223 kcal/mol

**Q.** What about the Activity [25] of the same compound?
**A.** Non-toxic

**Q.** And the Activity (Staphylococcus aureus [26])?
**A.** Active

**Q.** What about the Activity (Staphylococcus aureus [27]) of the same compound?
**A.** 7.29 log10CFU/g
